Cc1ccc(CO)cc1
solubility (mole fraction)
Settings | 278.15 K | 283.15 K | 288.15 K | 293.15 K | 298.15 K | 303.15 K | 308.15 K | 313.15 K
in 1,2-dichloroethane | 0.166 | 0.214 | 0.28 | 0.343 | 0.418 | 0.506 | 0.585 | 0.685
in acetone | 0.226 | 0.272 | 0.321 | 0.384 | 0.431 | 0.497 | 0.568 | 0.642
in acetonitrile | 0.162 | 0.214 | 0.287 | 0.361 | 0.454 | 0.548 | 0.638 | 0.735
in dichloromethane | 0.4 | 0.429 | 0.466 | 0.502 | 0.537 | 0.588 | 0.646 | 0.729
in ethanol | 0.236 | 0.276 | 0.327 | 0.379 | 0.44 | 0.508 | 0.581 | 0.662
in ethyl acetate | 0.215 | 0.259 | 0.308 | 0.369 | 0.433 | 0.511 | 0.587 | 0.671
in ethyl formate | 0.152 | 0.191 | 0.242 | 0.303 | 0.372 | 0.449 | 0.537 | 0.62
in isobutanol | 0.231 | 0.275 | 0.321 | 0.373 | 0.446 | 0.513 | 0.594 | 0.667
in isopropanol | 0.248 | 0.283 | 0.33 | 0.386 | 0.448 | 0.527 | 0.597 | 0.674
in n-butanol | 0.252 | 0.287 | 0.334 | 0.385 | 0.45 | 0.51 | 0.584 | 0.698
in n-propanol | 0.253 | 0.293 | 0.34 | 0.398 | 0.454 | 0.518 | 0.595 | 0.674
